Experimental data taken from patent EP4603105A1, “PHARMACEUTICAL COMPOSITION CONTAINING CYCLIC COMPOUND HAVING SELECTIVE KRAS INHIBITORY EFFECT AGAINST HRAS AND NRAS” (CHUGAI SEIYAKU KABUSHIKI KAISHA, priority 2022, dated 2024).
*1 amine or outer side, *2 acyl side, *3 side chain or, on linkers, in order; H or OH if unused. Where a SMILES comes first, the peptide text is derived from it. Bridges are numbered along the chain shown (N, C = ends). [ ]: non-standard residue; d: D form. The star is where a group is joined. X23 = O=C([C@H](Cc1ccc(C(F)(F)F)cc1)N(CC1CCCC1)[*:1])[*:2]; hPhe(3-Cl-4-CF3) = N[C@@H](CCc1ccc(C(F)(F)F)c(Cl)c1)C(=O)O; X33 = O=C([C@H](Cc1ccc(C(F)(F)F)cc1)N(CC1CC1)[*:1])[*:2]; NPrPhe(4-CF3) = CCCN[C@@H](Cc1ccc(C(F)(F)F)cc1)C(=O)O; NMeGly(cPent) = CN[C@H](C(=O)O)C1CCCC1; NMeD = CN[C@@H](CC(=O)O)C(=O)O; NMeL = CN[C@@H](CC(C)C)C(=O)O; Morpholide = C1CN(*)CCO1; Ac5c = NC1(C(=O)O)CCCC1; Ac4c = NC1(C(=O)O)CCC1; Sar = CNCC(=O)O

Assays:
[1] = test system: human lung cancer strain NCI-H441; format: cell-based
Summary of the method: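 Signal came from […] measured per well once the reagent was added. Beforehand, cells were cultured at 37°C and 5% carbon dioxide on a compound series serially diluted in dimethyl sulfoxide.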

HRAS wild-type protein = HRAS wild-type protein (Homo sapiens, UniProt P01112); assay: Binding to HRAS by surface plasmon resonance (SPR), KD and KD ratio to KRAS
Summary of the method: (§1)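 Recombinant RAS proteins bearing a biotinylated Avi tag and loaded with GDP served as the captured ligand, recaptured fresh every cycle. Binding responses were referenced to an uncoated surface and a buffer-only blank cycle. Dissociation constants were obtained by 1:1 model fitting at 30°C.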

[2] = target: GDP-bound NRAS wild-type protein (Homo sapiens, UniProt P01111); assay: Binding to NRAS by surface plasmon resonance (SPR), KD and KD ratio to KRAS
Summary of the method: as §1

[3] = ratio of KD value for HRAS wild-type protein to KD value for KRAS (SPR)
[4] = ratio of KD value for GDP-bound NRAS wild-type protein to KD value for KRAS (SPR)
[5] = ratio of KD for HRAS wild-type protein to KD for KRAS
[6] = ratio of KD for GDP-bound NRAS wild-type protein to KD for KRAS
[7] = ratio of the KD value with respect to HRAS wild-type protein to the KD value with respect to KRAS
[8] = ratio of the KD value with respect to GDP-bound NRAS wild-type protein to the KD value with respect to KRAS

Chain of GDP-bound NRAS wild-type protein (P01111 whole entry): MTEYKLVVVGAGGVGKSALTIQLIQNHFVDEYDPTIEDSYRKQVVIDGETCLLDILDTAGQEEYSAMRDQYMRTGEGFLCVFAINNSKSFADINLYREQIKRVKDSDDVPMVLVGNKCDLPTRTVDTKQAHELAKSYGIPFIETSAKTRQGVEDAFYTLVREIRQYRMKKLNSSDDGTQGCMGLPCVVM
Chain of HRAS wild-type protein (P01112 whole entry): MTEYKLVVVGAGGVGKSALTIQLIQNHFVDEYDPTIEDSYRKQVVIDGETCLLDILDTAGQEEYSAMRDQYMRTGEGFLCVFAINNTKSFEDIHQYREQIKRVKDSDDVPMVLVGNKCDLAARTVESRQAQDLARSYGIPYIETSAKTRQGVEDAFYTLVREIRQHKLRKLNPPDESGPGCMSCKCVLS

Structure (SMILES)	IC50 [1] [nM]	HRAS /KRAS (HRAS wild-type protein; [3])	NRAS /KRAS [2, 4]	HRAS /KRAS (HRAS wild-type protein; [5])	NRAS /KRAS [2, 6]	HRAS /KRAS (HRAS wild-type protein; [7])	NRAS /KRAS [2, 8]
CC[C@H](C)[C@@H]1NC(=O)[C@H](CC(C)C)N(C)C(=O)C[C@@H](C(=O)N(C)C)N(C)C(=O)[C@H](C2CCCC2)N(C)C(=O)C2(CC(C)(C)C2)NC(=O)CN(C)C(=O)[C@H](CCc2cc(F)c(C(F)(F)F)c(F)c2)NC(=O)CN(C)C(=O)[C@H](Cc2ccc(C(F)(F)F)cc2)N2CC/C=C\C[C@@H](C2=O)N(C)C(=O)CN(C)C1=O [PP1776]	98.7	A (a compound having 10 or more and less than 20 is denoted as A)	A (a compound having 10 or more and less than 20 is denoted as A)	–	–	–	–
CC[C@H](C)[C@@H]1NC(=O)[C@H](COC)N(C)C(=O)C[C@@H](C(=O)N2CCOCC2)N(C)C(=O)[C@H](C2CCCC2)N(C)C(=O)C2(CCC2)NC(=O)[C@@H]2C[C@@H](OCC(C)C)CN2C(=O)[C@H](CCc2cc(F)c(C(F)(F)F)c(F)c2)NC(=O)CN(C)C(=O)[C@H](Cc2ccc(C(F)(F)F)cc2)N2CCCCC[C@@H](C2=O)N(C)C(=O)CN(C)C1=O [PP0839]	122	–	–	B (a compound having 3 or more and less than 10 is denoted as B)	B (a compound having 3 or more and less than 10 is denoted as B)	–	–
CC[C@H](C)[C@@H]1NC(=O)[C@H](C2CCC2)N(C)C(=O)C[C@@H](C(=O)N(C)CC)N(C)C(=O)[C@H](C2CCCC2)N(C)C(=O)C2(CC(C)(C)C2)NC(=O)[C@@H]2C[C@H](C)CN2C(=O)[C@H](CCc2ccc(C(F)(F)F)c(OC)c2)NC(=O)CN(C)C(=O)[C@H](Cc2ccc(C(F)(F)F)cc2)N2CC/C=C\C[C@@H](C2=O)N(C)C(=O)CN(C)C1=O [PP2009]	19.7	–	–	–	–	A (a compound having 10 or more and less than 20 is denoted as A)	A (a compound having 10 or more and less than 20 is denoted as A)
CCO[C@@H]1C[C@H]2C(=O)NC3(CC(C)(C)C3)C(=O)N(C)[C@@H](C3CCCC3)C(=O)N3CCC[C@@H]3CC(=O)N(C)[C@@H](CC)C(=O)N[C@@H]([C@@H](C)CC)C(=O)N(C)CC(=O)N(C)[C@H]3C/C=C\CCN(C3=O)[C@@H](CC3CCCCC3)C(=O)N(C)CC(=O)N[C@@H](CCc3cc(F)c(C(F)(F)F)c(F)c3)C(=O)N2C1 [PP1620]	170	B (a compound having 3 or more and less than 10 is denoted as B)	B (a compound having 3 or more and less than 10 is denoted as B)	–	–	–	–
CC[C@H](C)[C@@H]1NC(=O)[C@H](CC(F)F)N(C)C(=O)C[C@@H](C(=O)N(C)CC)N(C)C(=O)[C@H](C2CCCC2)N(C)C(=O)C2(CC(C)(C)C2)NC(=O)[C@@H]2C[C@H](C)CN2C(=O)[C@H](CCc2ccc(C(F)(F)F)c(Cl)c2)NC(=O)CN(C)C(=O)[C@H](Cc2ccc(C)cc2)N2CC/C=C\C[C@@H](C2=O)N(C)C(=O)CN(C)C1=O [PP1911]	11.7	–	–	–	–	A (a compound having 10 or more and less than 20 is denoted as A)	A (a compound having 10 or more and less than 20 is denoted as A)
CCCO[C@@H]1C[C@H]2C(=O)NC3(CC(C)(C)C3)C(=O)N(C)[C@@H](C3CCCC3)C(=O)N(C)[C@H](C(=O)N(C)C)CC(=O)N(C)[C@H]3CCCCc4ccc(cc4)C[C@@H](C(=O)N(C)CC(=O)N[C@@H](CCc4ccc(C(F)(F)F)c(OC)c4)C(=O)N2C1)N1CC/C=C\C[C@@H](C1=O)N(C)C(=O)CN(C1CC1)C(=O)[C@H]([C@@H](C)CC)NC3=O [PP3082]	1.7	–	–	B (a compound having 3 or more and less than 10 is denoted as B)	B (a compound having 3 or more and less than 10 is denoted as B)	–	–
CCCN1C(=O)CN(C)C(=O)CNC(=O)[C@H]([C@@H](C)CC)NC(=O)[C@H](CC(C)C)N(C)C(=O)C[C@@H](C(=O)N2CCOCC2)NC(=O)[C@H](C2CCCC2)N(C)C(=O)C2(CCC2)NC(=O)[C@@H]2CCCN2C(=O)[C@H](CCc2ccc(C(F)(F)F)c(Cl)c2)NC(=O)CN(C)C(=O)[C@@H]1Cc1ccc(C(F)(F)F)cc1 [PP0326] ([NMeL]IG[Sar][NPrPhe(4-CF3)][Sar][hPhe(3-Cl-4-CF3)]P[Ac4c][NMeGly(cPent)]D-Morpholide; lactam N-11)	172	–	–	B (a compound having 3 or more and less than 10 is denoted as B)	B (a compound having 3 or more and less than 10 is denoted as B)	–	–
C#CCN1CC(=O)N(C)[C@H]2C/C=C\CCN(C2=O)[C@@H](Cc2ccc(C)cc2)C(=O)N(C)CC(=O)N[C@@H](CCc2cc(F)c(C(F)(F)F)c(F)c2)C(=O)N2C[C@H](OCC)C[C@H]2C(=O)NC2(CC(C)(C)C2)C(=O)N(C)[C@@H](C2CCCC2)C(=O)N(C)[C@H](C(=O)N(C)C)CC(=O)N(C)[C@@H](CC(C)C)C(=O)N[C@@H]([C@@H](C)CC)C1=O [PP2052]	4.1	–	–	–	–	A (a compound having 10 or more and less than 20 is denoted as A)	A (a compound having 10 or more and less than 20 is denoted as A)
CCCOC[C@H]1C(=O)N[C@@H]([C@@H](C)CC)C(=O)N(C)CC(=O)N(C)[C@H]2C/C=C\CCN(C2=O)[C@@H](CC2CCC(F)(F)CC2)C(=O)N(C)CC(=O)N[C@@H](CCc2ccc(C(F)(F)F)c(OC)c2)C(=O)N2C[C@H](OCC)C[C@H]2C(=O)N(C)C2(CCC2)C(=O)N(C)[C@@H](C2CCCC2)C(=O)N(C)[C@H](C(=O)N(C)C)CC(=O)N1C [PP2350]	60.3	–	–	–	–	A (a compound having 10 or more and less than 20 is denoted as A)	A (a compound having 10 or more and less than 20 is denoted as A)
CC[C@H](C)[C@@H]1NC(=O)[C@H](CC(C)C)N(C)C(=O)C[C@@H](C(=O)N2CCOCC2)N(C)C(=O)[C@H](C2CCCC2)N(C)C(=O)C2(CCCC2)NC(=O)[C@@H]2CCCN2C(=O)[C@H](CCc2ccc(C(F)(F)F)c(Cl)c2)NC(=O)CN(C)C(=O)[C@H](Cc2ccc(C(F)(F)F)cc2)N(CC2CCCC2)C(=O)CN(C)C(=O)CN(C)C1=O [PP0124] ([NMeL]I[Sar][Sar][X23][Sar][hPhe(3-Cl-4-CF3)]P[Ac5c][NMeGly(cPent)][NMeD]-Morpholide; lactam N-11)	48.8	–	–	C (A compound having a KD ratio of 0.1 or more and less than 3 is denoted as C)	C (A compound having a KD ratio of 0.1 or more and less than 3 is denoted as C)	–	–
CCO[C@@H]1C[C@H]2C(=O)NC3(CC(C)(C)C3)C(=O)N(C)[C@@H](C3CCCC3)C(=O)N(C)[C@H](C(=O)N(C)CC)CC(=O)N(C)[C@@H](C(C)C)C(=O)N[C@@H]([C@@H](C)CC)C(=O)N(C)CC(=O)N(C)[C@H]3C/C=C\CCN(C3=O)[C@@H](Cc3ccc(C(F)(F)F)cc3)C(=O)N(C)CC(=O)N[C@@H](CCc3cc(F)c(C(F)(F)F)c(F)c3)C(=O)N2C1 [PP2034]	8.8	–	–	–	–	A (a compound having 10 or more and less than 20 is denoted as A)	A (a compound having 10 or more and less than 20 is denoted as A)
CC[C@H](C)[C@@H]1NC(=O)[C@H](CC(C)C)N(C)C(=O)C[C@@H](C(=O)N2CCOCC2)N(C)C(=O)[C@H](C2CCCC2)N(C)C(=O)C2(CCCC2)NC(=O)[C@@H]2CCCN2C(=O)[C@H](CCc2ccc(C(F)(F)F)c(Cl)c2)NC(=O)CN(C)C(=O)[C@H](Cc2ccc(C(F)(F)F)cc2)N(CC2CC2)C(=O)CN(C)C(=O)CN(C)C1=O [PP0122] ([NMeL]I[Sar][Sar][X33][Sar][hPhe(3-Cl-4-CF3)]P[Ac5c][NMeGly(cPent)][NMeD]-Morpholide; lactam N-11)	12	–	–	C (A compound having a KD ratio of 0.1 or more and less than 3 is denoted as C)	C (A compound having a KD ratio of 0.1 or more and less than 3 is denoted as C)	–	–
